Data reported in PubChem BioAssay AID463074 (Broad Institute, 2010).
The source made the active and inactive calls.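 The calls were made as follows: active = AC50 no more than tenfold above the top dose tested, or full inhibition at every dose with a flat fit (cut at about 19 µM in these data); inconclusive = flat curve fit with inhibition between 30% and 70%, or poor fit; inactive = AC50 more than tenfold above the top dose tested.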

Test system: HMLE_sh_eGFP viability, CellTiter-Glo luminescence, 72 h
Assay: viability loss of HMLE_sh_eGFP cells – cell-based, luminescence, counter-screen for HMLE_sh_ECad selective toxicity project, dose response (AID 463074);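 also: counterscreen control line to flag general toxicity for the HMLE_sh_ECad screen; potency for loss of viability as luminescence drops below DMSO wells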

Structure (SMILES) | AC50
O=[N+]([O-])c1cccc(-c2csc(Nc3ccccc3)n2)c1 | 3.88 µM
Cc1ccc(C(=O)Nc2nc(C)c(C(=O)Nc3ccc4c(c3)CCC4)s2)cc1 | 18.8 µM
CNC(=O)c1cc(Oc2ccc(NC(=O)Nc3ccc(Cl)c(C(F)(F)F)c3)cc2)ccn1 | 2.39 µM
O/N=C/c1ccnc(SCc2ccc(Cl)cc2)n1 | 10.9 µM
C[C@@H]1CN([C@H](C)CO)C(=O)Cc2cc(NS(=O)(=O)c3ccc(Cl)cc3)ccc2O[C@H]1CN(C)Cc1ccc(C(F)(F)F)cc1 | 3.18 µM
CCOC(=O)c1c(C)oc2c1C(=O)c1ccccc1C2=O | 4.72 µM
C/C(=N\NC(=S)Nc1ccc(F)cc1)c1ccc2c(c1)OCCO2 | 2.36 µM
O=c1[nH]c(NNC(=S)NCc2ccccc2)nc2c1C1(CCCCC1)Cc1ccccc1-2 | 3.91 µM
Cc1ccc(C)c(NC(=O)c2cc(-c3ccccc3)nn2-c2ccccc2)c1 | 6.27 µM
Cc1nc2c3cc(F)ccc3n(Cc3ccccc3)c2s1 | 0.825 µM
CCCS(=O)(=O)c1c(S(=O)(=O)CCC)c2c(C)cccn2c1C(=O)N/N=C/c1cc(O)cc(O)c1 | 1.72 µM
Cc1ccc(C)c(NC(=S)NC(NC(=O)Cc2cccc3ccccc23)C(Cl)(Cl)Cl)c1 (stereo not given) | 1.97 µM
CC(C)COC(=O)c1cccc2c1-c1ccccc1/C2=N\O | 5.27 µM
CCN1C(=O)/C(=C\N2CCN(c3cccc(Cl)c3)CC2)SC1=S | > 19.5 µM (inactive)
O=C(Nc1ccc2c(c1)OCCO2)C(=O)c1c[nH]c2ccccc12 | 1.85 µM
CC1CCCC(NCC(O)COC(c2ccc(F)cc2)c2ccc(F)cc2)C1C (stereo not given) | 6.69 µM
CC(C)c1ccc(NC(=O)c2snc3ccc(Cl)cc23)cc1 | 3.62 µM
CC(C)(Sc1ccc(CCN(CCCCC2CCCCC2)C(=O)NC2CCCCC2)cc1)C(=O)O | 5.57 µM
Cc1ccccc1CSc1ccc(-c2ccc3c(c2)OCO3)nn1 | 7.5 µM
CC(C)Cc1nc2oc3c(Cl)ncnc3c2c2c1CCCC2 | 4.82 µM
O=C(NCCCN1CCOCC1)c1ccc(CSc2ccc(Cl)cc2)cc1 | 7.77 µM
O=Cc1ccc(Oc2cc(-c3ccccc3)nc(-c3ccccc3)n2)cc1 | 7.03 µM
Cc1onc(-c2c(Cl)cccc2Cl)c1C(=O)NNc1ccccc1 | 2.09 µM
N#Cc1c(-c2ccccc2)c(-c2ccccc2)nn(CC(=O)NNC(=O)Nc2ccc(Cl)c(Cl)c2)c1=O | 3.28 µM
O=[N+]([O-])c1ccc(Cl)c([N+](=O)[O-])c1 | 5.62 µM
COC(=O)c1ccc(/C=C/c2c(-c3ccc(OC)cc3)oc3ccc(N4CCOCC4)cc23)cc1 | 4.19 µM
COCCNc1cc(-c2ccccc2)nc2cc(-c3cccc(F)c3)nn12 | 13 µM

Structure (SMILES) | AC50
CCN(CC)c1nc(SCCOC(=O)Nc2ccccc2)nc(N(CC)CC)n1 | 4.58 µM
CN(CC(=O)Nc1ccc(Cl)c(Cl)c1)C(=O)C12CC3CC(CC(C3)C1)C2 | 6.2 µM
Cc1cc(S(=O)(=O)c2ccc([N+](=O)[O-])cn2)ccc1Br | 3.99 µM
COc1ccc(Sc2ccc(-c3nc4cnccn4c3NC3CCCCC3)cc2OC)cc1 | 3.57 µM
Cc1cc(C)c2[nH]c(=O)c(CN(Cc3cccs3)C(=S)NCc3ccco3)cc2c1 | > 19.5 µM (inactive)
Cc1cccc(OCCNC(=O)c2cccc(Oc3ccc(C(F)(F)F)cc3[N+](=O)[O-])c2)c1 | 6.38 µM
Cc1cc([N+](=O)[O-])ccc1-c1ccc(C2Nc3ccccc3C(=O)N2O)o1 (stereo not given) | 6.45 µM
COc1cc(/C=C(\C#N)C(=O)NC2CCCCC2C)ccc1OS(=O)(=O)c1ccc(C)cc1 (stereo not given) | 6.69 µM
CCOC(=O)c1c(NC(=O)CSc2nc3ccc(C)cc3[nH]2)sc2c1CC(C)(C)NC2(C)C | 6.64 µM
COc1ccc(NC(=O)c2ccc(COc3ccccc3Br)o2)cc1OC | 0.756 µM
CCN1CCN(c2cc(-c3ccccc3)nc3cc(-c4cccc(F)c4)nn23)CC1 | 5.65 µM
O=C(Nc1ccc(Br)c(C(F)(F)F)c1)c1ccc(C(F)(F)F)cc1 | 3.03 µM
Oc1ccc(Cl)cc1-c1cc(-c2cccc(Br)c2)n[nH]1 | 6.39 µM
CCNc1nc(NCC)n2c(SC(C(=O)Nc3cc(Cl)cc(Cl)c3)c3ccccc3)nnc2n1 (stereo not given) | 3.52 µM
COC(=O)c1ccc(/C=C/c2c(-c3ccsc3)sc3ccccc23)cc1 | 7.46 µM
CCCn1c(SCC#N)nc2c(c1=O)C1(CCCC1)Cc1ccccc1-2 | 1.52 µM
CCCCCCCCNC(C)C(O)c1ccc(SC(C)C)cc1 (stereo not given) | 3.83 µM
O/N=C/c1cc(Cl)ccc1OCc1ccccc1Cl | 6.08 µM
CC1(O)CC(c2ccc(Cl)cc2)=NN1C(=O)c1ccc([N+](=O)[O-])cc1 (stereo not given) | 6.72 µM
CC(C)c1ccc(/C=N/NC(=O)c2ccccn2)cc1 | > 19.5 µM (inactive)
Cc1cc(C)cc(NC(=O)CCc2nc3sc4c(c3c(=O)[nH]2)CCCC4)c1 | 5.26 µM
CCCc1cc(-c2nc(-c3ccc(C)cc3)cs2)ccn1 | 5.16 µM
COc1ccc(C[C@H]2CN3C(=NC[C@@H]3Cc3ccccc3)N2CCNC(=O)CCC2CCCCC2)cc1 | 7.04 µM
O=C(CNC(=O)C1COc2ccccc2O1)N/N=C/c1ccc(O)cc1O (stereo not given) | 5.21 µM
CNC(=O)c1c(NC(=O)c2ccc(S(=O)(=O)N3CCCc4ccccc43)cc2)sc2c1CCN(C)C2 | 0.987 µM
CCN1CCN(CCNC(=O)c2ccc3c(c2)N(Cc2ccc(F)cc2)C(=O)/C(=C/c2ccccc2)S3)CC1 | 3.71 µM
Oc1ccc(N=Nc2ccc3ccccc3c2)cc1 | 7.43 µM

Structure (SMILES) | AC50
Cc1nc(SCc2nc3ccc(C(F)(F)F)cc3[nH]2)c2oc3ccccc3c2n1 | 5.23 µM
Cc1cccc(OCc2n(CC(=O)OC3CC(C)CCC3C(C)C)c3ccccc3[n+]2C)c1 (stereo not given) | 3.47 µM
CCOC(=O)c1cc(-c2cccs2)nc2c1c(C)nn2-c1ccccn1 | 11.8 µM
COC(=O)c1ccc(/C=C/c2c(-c3ccc(OC)cc3)sc3ccccc23)cc1 | 7.05 µM
CCCC(c1nnnn1CC1CCCO1)N1CCN(c2cc(Cl)ccc2C)CC1 (stereo not given) | 2.78 µM
O=[N+]([O-])c1ccc(N2N=C(c3ccccc3)CC2c2ccccc2O)cc1 (stereo not given) | 2.51 µM
CC(C)COc1ccc(-c2nn(-c3ccccc3)cc2/C=C2/SC(=S)N(CC(=O)O)C2=O)cc1 | 4.51 µM
CCCCCCSc1ccc(-c2nc3cnccn3c2NCCCC)cc1 | 4.07 µM
C[C@]12CC[C@H]3[C@@H](CC[C@]4(O)C[C@@H](O)CC[C@]34C=O)[C@@]1(O)CC[C@@H]2C1=CC(=O)OC1 | 0.446 µM
CCCCCc1cc(=O)oc2c(C(CCN3CCCCC3)c3cc(OC)c(OC)c(OC)c3)c(OC)cc(OC)c12 (stereo not given) | 6.95 µM
COc1cccc(Cn2nnc(C(=O)Nc3cc(Cl)ccc3OC)c2N)c1 | 0.935 µM
Cc1ccc(NC(=O)CN(C)C(=O)Cn2ncc(Cl)c(Cl)c2=O)cc1 | 4.22 µM
COc1ccc(Nc2nnc(-c3ccccc3)c3ccccc23)cc1C(=O)N1CCCCC1 | > 19.5 µM (inactive)
COc1ccc(C2c3ccc4ccccc4c3Oc3ncn(Cc4ccco4)c(=N)c32)cc1OC (stereo not given) | 7.58 µM
O=C1NC(=Nc2ccc(Cl)cc2)SC1Cc1cccc(Cl)c1Cl (stereo not given) | > 19.5 µM (inactive)
CC(C)(C)OC(=O)NCc1ccc(NC(=O)c2nc[nH]c2C(=O)NCCCNC(=O)c2[nH]cnc2C(=O)Nc2ccc(CNC(=O)OC(C)(C)C)cc2)cc1 | 1.92 µM
Cc1ccc(-c2ccc([C@H]3[C@@H]4C=CCC[C@@]4(C)C(=O)N3Cc3ccccc3)c(F)c2)cc1 | 5.32 µM
Cc1cc(Nc2cccc([N+](=O)[O-])c2)n2c(nc3ccccc32)c1C#N | 9.61 µM
C=C(C(=O)c1ccccc1)C(C)C(=C)C(=O)c1ccccc1 | 1.85 µM
COc1ccc(-c2csc(NC(=S)NC(=O)/C=C/c3ccco3)n2)cc1OC | 3.72 µM
CCOC(=O)C(=NCCCN1CCOCC1)NNc1cccc(C(F)(F)F)c1 | 9.13 µM
O=Cc1cc2ccccc2nc1SCc1ccc(Cl)cc1 | 5.69 µM
O=C(Nc1ccc(Cl)c(Cl)c1)O/N=C/c1ccncc1 | 10.1 µM
CC(C)(C)c1ccc(C(=O)CC(Sc2ccc(Cl)cc2)C(=O)O)cc1 (stereo not given) | 9.07 µM
Cc1nn(-c2ccccc2)c(C)c1/C=N/NC(=O)c1cc(-c2ccc(Br)s2)[nH]n1 | 4.72 µM
CCc1ccc(NC(=O)C(CC)Sc2nc3cc4c(cc3c(=O)n2Cc2ccco2)OCO4)cc1 (stereo not given) | 13.1 µM
CCCOc1ccc(/C=N/Nc2cc(N3CCOCC3)ncn2)c(O)c1 | 3.38 µM

Structure (SMILES) | AC50
CN1C(=O)/C(=C/c2cccc(Cl)c2)Sc2ccc(C(=O)NCc3cccnc3)cc21 | 5.15 µM
COc1cc(/C=N/NC(=O)c2ccc(CN(C)S(=O)(=O)c3ccc(C)cc3)cc2)ccc1O | 5.13 µM
O=C(c1ccccc1)c1c[nH]c(C(=O)NNc2ccccc2)c1 | 1.53 µM
Cc1cccc(NC(=S)N/N=C/c2c[nH]c3ccccc23)c1 | 1.63 µM
Cc1ccc(C)c(OCCCCN2CCNCC2)c1C | 6.15 µM
O=C(N/N=C/c1ccc(OC2CSC2)cc1)c1ccccc1 | 2.85 µM
Cc1ccc(-n2c(-c3cccs3)nc3ccccc3c2=O)cc1 | 3.36 µM
CCCCn1c(=O)c(C(=O)NCc2ccccc2)c(O)c2ccccc21 | 8.36 µM
COc1ccc(CCn2c(C3CCCCC3)nc3c(c(=O)c4ccccc4n3C)c2=O)cc1 | 5.17 µM
O=c1cc(N2CCCCC2)c(-c2ccccc2)nn1Cc1ccc(Cl)cc1 | 3.77 µM
O=C(O)c1ccccc1C(=O)NNc1ccc(Cl)cc1 | 3.95 µM
COc1ccc(C(=O)NCC2(c3ccccc3)CCCC2)c(OC)c1 | 9.54 µM
CCc1cc(-c2n[nH]c(C)c2-c2ccccc2Cl)c(O)cc1OC | 3.77 µM
CCSc1nnc(NC(=O)NC(CC)(C(F)(F)F)C(F)(F)F)s1 | 12 µM
CC1=NN(c2nc(-c3ccc(Cl)cc3)cs2)C(=O)C1 | 12.3 µM
CCN(CC)S(=O)(=O)c1ccc(N/N=C/c2cc(OC)ccc2O)nc1 | 3.85 µM
CCCCN=C(NNc1ccc(Br)cc1)C(=O)OCC | 3.99 µM
Cc1cc(C)cc(NC(=O)Nc2ccc(-n3ccc(C(F)(F)F)n3)cc2)c1 | 4.95 µM
O=[N+]([O-])c1ccc(N/N=C/c2c[nH]c3ccccc23)c(S(=O)(=O)Nc2ccc(Cl)cc2)c1 | 1.66 µM
O=C(C[n+]1ccccc1)NNc1ccccc1 | 1.78 µM
Cc1cccc(OCCNc2cc(N3CCN(C)CC3)ccc2[N+](=O)[O-])c1 | 5.34 µM
O=C(CC1NCCc2ccccc21)Nc1ccc(Oc2ccccc2)cc1 (stereo not given) | 7.46 µM
O=c1cc(N2CCCCC2)c(-c2ccccc2)nn1Cc1ccccc1 | 12 µM
Cc1ccc(S(=O)(=O)Nc2ccc3c(c2)CC(=O)N([C@H](C)CO)C[C@@H](C)[C@H](CN(C)Cc2ccc(-c4ccccc4)cc2)O3)cc1 | 2.29 µM
